Drawing on patent US20030004172A1, “Fused pyrimidinone matrix metalloproteinase inhibitors” (priority 2001, published 2003), this text covers IC50 for 25 molecules.

Molecules are shown by their SMILES. Where only a bound is given, the exact number is not on record here.

The target of one assay is MMP-13CD (catalytic domain of collagenase-3) (Homo sapiens, UniProt P45452). As to the kind of experiment: Thiopeptolide substrate hydrolysis inhibition assay, MMP-13CD. The class given is biochemical. The note with it: Table I; thiopeptolide substrate, HEPES pH 7.0, 22° C.; read-out: MMP-13CD IC50. The source says:
Thiopeptolide substrates show virtually no decomposition or hydrolysis at or below neutral pH in the absence of a matrix metalloproteinase enzyme.
Broadly, the IC50 is the concentration that inhibits the measured activity by half. For `CSc1ccc(COC(=O)c2cc3c(=O)n(Cc4ccccc4)c(=O)n(C)c3s2)cc1` [Example 203, 3-Benzyl-1-methyl-2,4-dioxo-1,2,3,4-tetrahydro-thieno[2,3-d]pyrimidine-6-carboxylic acid 4-methylsulfanyl-benzyl ester], the IC50 is 360 nM.

Regarding `CC(C)Cn1c(=O)c2cc(C(=O)OCc3ccccc3)sc2n(C)c1=O` [Example 135, 3-Isobutyl-1-methyl-2,4-dioxo-1,2,3,4-tetrahydro-thieno[2,3-d]pyrimidine-6-carboxylic acid benzyl ester], the IC50 was determined as 86 nM. Turning to `COc1cccc(CNC(=O)c2cc3c(=O)n(Cc4ccc(NC(C)=O)cc4)c(=O)n(C)c3s2)c1` [Example 65, 3-(4-Acetylamino-benzyl)-1-methyl-2,4-dioxo-1,2,3,4-tetrahydro-thieno[2,3-d]pyrimidine-6-carboxylic acid 3-methoxy-benzylamide], the IC50 came to 53.5 nM.

Turning to `COc1cc(CNC(=O)c2cc3c(=O)n(CC4CCCCC4)c(=O)n(C)c3s2)ccn1` [Example 371, 3-Cyclohexylmethyl-1-methyl-2,4-dioxo-1,2,3,4-tetrahydro-thieno[2,3-d]pyrimidine-6-carboxylic acid (2-methoxy-pyridin-4-ylmethyl)-amide], the IC50 is 220 nM. Turning to `CC/C=C/Cn1c(=O)c2cc(C(=O)NCc3cccc(OC)c3)sc2n(C)c1=O` [Example 286], the concentration for half-maximal inhibition (IC50) is 270 nM. As for `Cn1c(=O)n(Cc2ccc(S(C)(=O)=O)cc2)c(=O)c2cc(C(=O)OCc3ccccc3)sc21` [Example 102, 3-(4-Methanesulfonyl-benzyl)-1-methyl-2,4-dioxo-1,2,3,4-tetrahydro-thieno[2,3-d]pyrimidine-6-carboxylic acid benzyl ester], the IC50 turned out to be 34 nM. For the molecule `COc1cccc(CNC(=O)c2cc3c(=O)n(Cc4ccccc4)c(=O)n(C)c3s2)c1OC` [Example 334, 3-Benzyl-1-methyl-2,4-dioxo-1,2,3,4-tetrahydro-thieno[2,3-d]pyrimidine-6-carboxylic acid 2,3-dimethoxy-benzylamide], the IC50 was more than 100000 nM.

For `Cn1c(=O)n(Cc2ccccc2)c(=O)c2cc(C(=O)OCc3ccccc3)oc21` [Example 97, 3-Benzyl-1-methyl-2,4-dioxo-1,2,3,4-tetrahydro-furo[2,3-d]pyrimidine-6-carboxylic acid benzyl ester], the IC50 was more than 100000 nM.

As for `Cn1c(=O)n(Cc2ccccc2)c(=O)c2cc(C(=O)OCc3ccc4occc4c3)sc21` [Example 314, 3-Benzyl-1-methyl-2,4-dioxo-1,2,3,4-tetrahydro-thieno[2,3-d]pyrimidine-6-carboxylic acid benzofuran-5-ylmethyl ester], the IC50 was 18.5 nM.

As for `COc1cccc(CCNC(=O)c2cc3c(=O)n(Cc4ccccc4)c(=O)n(C)c3s2)c1` [Example 342, 3-Benzyl-1-methyl-2,4-dioxo-1,2,3,4-tetrahydro-thieno[2,3-d]pyrimidine-6-carboxylic acid[2-(3-methoxy-phenyl)-ethyl]-amide], the IC50 is more than 100000 nM. The same measure, in the same setting: next, `COc1ccc(CNC(=O)c2cc3c(=O)n(CC(=O)C(CC(=O)OC(C)(C)C)NC(=O)OCc4ccccc4)c(=O)n(C)c3s2)cc1` (stereo not shown) [Example 277]: 20000 nM; `Cn1c(=O)n(Cc2ccccc2)c(=O)c2cc(C(=O)OCc3ccc4c(c3)OCO4)sc21` [Example 201, 3-Benzyl-1-methyl-2,4-dioxo-1,2,3,4-tetrahydro-thieno[2,3-d]pyrimidine-6-carboxylic acid 1,3-benzodioxol-5-ylmethyl ester]: 300 nM; `COc1cccc(CNC(=O)c2cc3c(=O)n(CCS(=O)(=O)Cc4ccccc4)c(=O)n(C)c3s2)c1` [Example 282]: 10000 nM. Turning to `COc1cccc(CNC(=O)c2cc3c(=O)n(CCS(=O)(=O)c4cccc(C(F)(F)F)c4)c(=O)n(C)c3s2)c1` [Example 244, 1-Methyl-2,4-dioxo-3-[2-(3-trifluoromethyl-benzenesulfonyl)-ethyl]-1,2,3,4-tetrahydro-thieno[2,3-d]pyrimidine-6-carboxylic acid 3-methoxy-benzylamide], the IC50 was determined as 1250 nM. As for `COc1ccc(CNC(=O)c2cc3c(=O)n(CCC(=O)c4ccccc4)c(=O)n(C)c3s2)cc1` [Example 242, 1-Methyl-2,4-dioxo-3-(3-oxo-3-phenyl-propyl)-1,2,3,4-tetrahydro-thieno[2,3-d]pyrimidine-6-carboxylic acid 4-methoxy-benzylamide], the IC50 is 3000 nM. Turning to `Cn1c(=O)n(Cc2ccc(C#N)cc2)c(=O)c2cc(C(=O)OCc3ccccc3)sc21` [Example 313, 3-(4-Cyano-benzyl)-1-methyl-2,4-dioxo-1,2,3,4-tetrahydro-thieno[2,3-d]pyrimidine-6-carboxylic acid benzyl ester], the IC50 amounted to 6.45 nM.

Turning to `Cn1c(=O)n(Cc2ccccc2)c(=O)c2cc(C(=O)OCCCc3ccccn3)sc21` [Example 194, 3-Benzyl-1-methyl-2,4-dioxo-1,2,3,4-tetrahydro-thieno[2,3-d]pyrimidine-6-carboxylic acid 3-pyridin-2-yl-propyl ester], the IC50 came to 88000 nM. Same read-out and setting: then `COc1ccc(CNC(=O)c2cc3c(=O)n(CCOc4ccccc4)c(=O)n(C)c3s2)cc1` [Example 275], with 36 nM; and `Cn1c(=O)n(Cc2ccc(OC(F)(F)F)cc2)c(=O)c2cc(C(=O)OCc3ccccc3)sc21` [Example 311, 1-Methyl-2,4-dioxo-3-(4-trifluoromethoxy-benzyl)-1,2,3,4-tetrahydro-thieno[2,3-d]pyrimidine-6-carboxylic acid benzyl ester], with 84.5 nM. `Cn1c(=O)n(Cc2ccccc2)c(=O)c2cc(C(=O)OCCN3CCOCC3)sc21` [Example 174, 3-Benzyl-1-methyl-2,4-dioxo-1,2,3,4-tetrahydro-thieno[2,3-d]pyrimidine-6-carboxylic acid 2-morpholin-4-yl-ethyl ester]: the IC50 is more than 100000 nM.

`COc1cccc(CNC(=O)c2cc3c(=O)n(Cc4ccc(OC(C)(C)C(=O)OC(C)(C)C)cc4)c(=O)n(C)c3s2)c1` [Example 95, 2-{4-[6-(3-Methoxy-benzylcarbamoyl)-1-methyl-2,4-dioxo-1,4-dihydro-2H-thieno[2,3-d]pyrimidin-3-ylmethyl]-phenoxy}-2-methyl-propionic acid tert-butyl ester]: the half-maximal inhibitory concentration (IC50) was determined as 103 nM. Same read-out and setting: then `Cn1c(=O)n(Cc2cccc3ccccc23)c(=O)c2cc(C(=O)OCc3ccccc3)sc21` [Example 138, 1-Methyl-3-naphthalen-1-ylmethyl-2,4-dioxo-1,2,3,4-tetrahydro-thieno[2,3-d]pyrimidine-6-carboxylic acid benzyl ester], with 660 nM; and `O=C(OCc1ccccc1)c1cc2c(=O)n(Cc3ccccc3)c(=O)n(CC3CC3)c2s1` [Example 74, 3-Benzyl-1-cyclopropylmethyl-2,4-dioxo-1,2,3,4-tetrahydro-thieno[2,3-d]pyrimidine-6-carboxylic acid benzyl ester], with 71500 nM; and `CCC(CC)n1c(=O)c2cc(C(=O)NCc3ccc(OC)cc3)sc2n(C)c1=O` [Example 264], with 7400 nM.

Staying with this assay, now noted: Table II; micromolar concentration; HEPES pH 7.0; read-out: IC50 MMP-13CD.
With `C=Cc1ccc(Cn2c(=O)c3cc(C(=O)OCc4ccccc4)sc3n(C)c2=O)cc1` [Example 20, 1-Methyl-2,4-dioxo-3-(4-vinyl-benzyl)-1,2,3,4-tetrahydro-thieno[2,3-d]pyrimidine-6-carboxylic acid benzyl ester], the IC50 turned out to be 6.5 nM.
